# Source: US7238727B2, “Compositions for improving lipid metabolism” (Chugai Seiyaku Kabushiki Kaisha, priority 2000, dated 2007)
# Columns and labels:
# Assay type in all cases: in vivo
# [1] = tested on: rabbit atherosclerotic model; assay: Fatty liver by naked eye and HE stained liver sections; settings: 0.2% cholesterol + 3.0% L-valine, 13 weeks
# Experimental: (§1) Nine New Zealand White male rabbits aged 8 weeks (average body weight, 2.06 kg) were divided into three groups (n=3) by feed and fed for 13 weeks (temperature, 20 to 26° C.; humidity, 30 to 70%; illumination, 8:00 to 20:00). The untreated group was given an ordinary feed (NOSAN feed for laboratory animals, LABOR STOCK, manufactured by Nihon Nosan Kogyo, K.K.). As for the atherosclerotic model, the control group was given the ordinary feed plus 0.2% cholesterol (manufactured by Wako Pure Chemical Industries, Ltd.), and the valine group was given the ordinary feed plus 0.2% cholesterol plus 3.0% L-valine (JP, manufactured by Ajinomoto Co., Inc.). Throughout the experiment, the rabbits of each group were maintained on the feed (constant feeding) and water (using a water supplier) as desired. After 13 weeks, blood samples were collected from the abdominal aorta of the animals of each group under etherization and the animals were then sacrificed by bleeding. By subsequent autopsy, the degree of atherosclerotic lesion (plaque formation) in thoracic aorta and the degree of fatty liver were compared. Sections of the thoracic aorta and the liver were also prepared and examined histopathologically for intimal thickening and the formation of fat droplets.
# [2] = tested on: rabbit atherosclerotic model; assay: Intimal thickening in HE stained thoracic aorta sections; settings: 0.2% cholesterol + 3.0% L-valine, 13 weeks
# Experimental: as §1, with “droplets. Sections of the thoracic aorta were HE stained (hematoxylin-eosin stained).” for “droplets.”
# [3] = tested on: matured rat models fed with high-fat diets; assay: Peritesticular adipose tissue weight in rats fed a high-fat diet; settings: for adipose tissue weight less than that of casein+lard group / mean adipose tissue weight relative to casein+lard group: 3.0% L-valine + 8.4% lard; for peritesticular adipose tissue weight: feed with 3.0% L-valine + 8.4% lard, mean±standard deviation, n=3
# Experimental: To evaluate the effects of valine on lipid metabolism, the effects of the administration of L-valine containing feeds were examined on matured rat models fed with high-fat diets.
# 18 Crj:CD(SD) IGS male rats aged 12 weeks (body weight: 420 to 464 g, 443 g on average) were pre-fed for 5 days (not more than 4 animals/cage, temperature: 20 to 26° C., humidity: 30 to 70%, illumination: 8:00 to 20:00). During the pre-feeding period, the animals were maintained on a feed (constant feeding) and water (using a water supplier) as desired.
# (§2) After the completion of the pre-feeding, the animals were divided into 6 groups depending on feed and administration period. Rats of valine+lard groups were fed with a solid feed prepared by adding 8.4% lard (CAMERIA: manufactured by Romi Smilfood B. V.) and 3.0% L-valine (JP, manufactured by Ajinomoto Co., Inc.) to a conventional feed (CMF: manufactured by Oriental Yeast Co., Ltd.) for 2 or 4 weeks. Animals of casein+lard groups (i.e., control groups) were fed with a solid feed prepared by adding 8.4% lard and 3.0% milk-origin casein (manufactured by Wako Pure Chemical Industries, Ltd.) to the conventional feed (CMF: manufactured by Oriental Yeast Co., Ltd.) for 2 or 4 weeks. Animals of normal food groups were fed with a solid feed which was the conventional feed (CMF: manufactured by Oriental Yeast Co., Ltd.) for 2 or 4 weeks. During the experimental period, the rats of each group were maintained on the feed (constant feeding) and water (using a water supplier) as desired. Each group had 3 rats which were fed in a single cage (temperature: 20 to 26° C., humidity: 30 to 70%, illumination: 8:00 to 20:00) throughout the experimental period.
# (§3) After 2 or 4 weeks, the blood samples of the animals of each group were collected from the abdominal aorta and then the animals were sacrificed by bleeding under etherization followed by autopsy. As intraperitoneal adipose tissue, the adipose tissue around the left testis and epididymis was weighed. The collected blood samples were subjected to a serobiochemical examination and the like.
# [4] = tested on: matured rat models fed with high-fat diets; assay: Intraperitoneal adipose tissue area by abdominal CT scanning; settings: 4 weeks-feeding group
# Description: as §2
# 22 days after the initiation of the experiment, one rat of each of the 4 weeks-feeding groups was subjected to the abdominal CT scanning (slice width: 5 mm) under anesthesia with Nembutal. From the CT image thus obtained, the intraperitoneal adipose tissue area was determined as the mean of the intraperitoneal adipose-containing areas in posterior 4 slices from the sites where no kidney was observed.
# [5] = tested on: matured rat models fed with high-fat diets; assay: Serobiochemical examination of rats fed a high-fat diet
# Description: as §2, §3
# [6] = tested on: rabbit atherosclerotic model; assay: Plaque formation in aortic arch specimens; design: key to plaque formation in specimens of aortic arch: +: visible slight plaque formation; ++: visible moderate plaque formation; −: no visible plaque formation; settings: 13 weeks; for plaque formation in specimens of aortic arch: feed with 0.2% cholesterol + 3.0% L-valine
# Experimental: as §1, with “In order to evaluate the efficacy of valine on atherosclerosis and fatty liver, an L-valine containing feed was administered to a rabbit atherosclerotic model and its effect was investigated. Nine” for “Nine”
# [7] = 2 weeks feeding, mean±standard deviation, n=3
# [8] = 4 weeks feeding, mean±standard deviation, n=3
compound,measurement,setting,value
"CC(C)[C@H](N)C(=O)O [valine, L-valine]","yellowing of the liver (fatty liver), naked eye",[1],"no yellowing of the liver was observed, or yellowing of the liver was visible but to a lesser extent than in the control group"
same,fat droplets and swelling of hepatocytes,[1]; HE stained liver sections,hepatocytes contained such a small number of fat droplets that they experienced no visible swelling
same,intimal thickening of thoracic aorta,[2],intimal thickening was hardly visible
same,adipose tissue weight compared with normal food group,[3]; 2 weeks feeding,smaller than that of the normal food group
same,adipose tissue weight less than that of casein+lard group,[3]; 2 weeks feeding,30%
same,mean adipose tissue weight relative to casein+lard group,[3]; 2 weeks feeding,about 0.70 times
same,peritesticular adipose tissue weight,[3]; 2 weeks feeding,2.55 ± 0.38 g
same,adipose tissue weight compared with normal food group,[3]; 4 weeks feeding,smaller than that of the normal food group
same,adipose tissue weight less than that of casein+lard group,[3]; 4 weeks feeding,26%
same,mean adipose tissue weight relative to casein+lard group,[3]; 4 weeks feeding,about 0.74 times
same,peritesticular adipose tissue weight,[3]; 4 weeks feeding,2.92 ± 0.40 g
same,increase in the adipose tissue weight,"[3]; both 2 weeks and 4 weeks feeding, feed intake almost the same",inhibited
same,increase in the intraperitoneal adipose tissue area versus casein+lard group,[4]; CT,more inhibited
same,intraperitoneal adipose tissue area,"[4]; CT 22 days after initiation, n=1",3.2 cm^2
same,intraperitoneal adipose tissue relative to casein+lard group,"[4]; CT, n=1",about 0.65 times
same,mean free fatty acid level relative to casein+lard group,[5]; 2 weeks feeding,about 0.73 times
same,mean lipid peroxide level relative to casein+lard group,[5]; 2 weeks feeding,about 0.42 times
same,mean triacylglycerol level relative to casein+lard group,[5]; 2 weeks feeding,about 0.54 times
same,mean β-lipoprotein level relative to casein+lard group,[5]; 2 weeks feeding,about 0.53 times
same,mean serum free fatty acid level,[5]; [7],0.35±0.06 mEq/L
same,mean serum lipid peroxide level,[5]; [7],1.1 ± 0.7 nmol/dL
same,mean serum triacylglycerol level,[5]; [7],52.0 ± 21.9 mg/dL
same,mean serum β-lipoprotein level,[5]; [7],33.3 ± 14.5 mg/dL
same,mean free fatty acid level relative to casein+lard group,[5]; 4 weeks feeding,about 0.82 times
same,mean triacylglycerol level relative to casein+lard group,[5]; 4 weeks feeding,about 0.60 times
same,mean β-lipoprotein level relative to casein+lard group,[5]; 4 weeks feeding,about 0.62 times
same,mean serum free fatty acid level,[5]; [8],0.36±0.11 mEq/L
same,mean serum triacylglycerol level,[5]; [8],67.7 ± 33.5 mg/dL
same,mean serum β-lipoprotein level,[5]; [8],41.0 ± 10.8 mg/dL
same,plaque formation compared with control group,"[6]; 0.2% cholesterol + 3.0% L-valine, n=3","no plaque formation was visible, or plaque formation was visible but to a lesser extent than in the control group"
same,plaque formation in specimens of aortic arch,[6]; animal 1,−
same,plaque formation in specimens of aortic arch,[6]; animal 2,−
same,plaque formation in specimens of aortic arch,[6]; animal 3,+
